Biological target: T1, Human DGAT1 (Homo sapiens, UniProt O75907)
T1 construct: made in house; host or cells: Pichia pastoris (printed 'Pichia pastris'), vector pPICZA, membrane fraction
T1 sequence (O75907 1-488): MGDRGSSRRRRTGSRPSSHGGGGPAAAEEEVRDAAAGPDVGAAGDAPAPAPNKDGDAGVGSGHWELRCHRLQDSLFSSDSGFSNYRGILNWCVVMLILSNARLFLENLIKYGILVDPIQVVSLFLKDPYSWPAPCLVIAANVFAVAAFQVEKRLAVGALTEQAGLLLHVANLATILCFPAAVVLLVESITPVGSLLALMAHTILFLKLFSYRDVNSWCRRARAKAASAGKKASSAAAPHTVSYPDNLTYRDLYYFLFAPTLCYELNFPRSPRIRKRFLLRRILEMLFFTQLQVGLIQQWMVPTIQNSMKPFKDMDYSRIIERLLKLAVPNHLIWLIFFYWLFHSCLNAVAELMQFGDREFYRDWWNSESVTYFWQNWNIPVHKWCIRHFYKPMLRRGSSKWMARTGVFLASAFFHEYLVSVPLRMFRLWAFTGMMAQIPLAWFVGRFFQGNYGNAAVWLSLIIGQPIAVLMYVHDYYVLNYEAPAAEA
Assay: DGAT1 Inhibitory Activity Test
Type: biochemical
Conditions: DGAT1-expressed yeast membrane fraction as enzyme source; 40 μM Dioelin, 15 μM [14C]-oleoyl-CoA; room temperature for 30 minutes
Description: Human DGAT1 genes were amplified by PCR using primers described below from human cDNA library (Clontech).
The amplified human DGAT1 genes were introduced into a yeast expression vector pPICZA (Invitrogen). The resultant expression plasmid was introduced into an yeast (Pichia pastris) by electroporation to produce a recombinant yeast. The recombinant yeast was cultured in the presence of 0.5% methanol for 72 hours, and the cells were crushed using glass beads in 10 mM Tris pH 7.5, 250 mM sucrose and 1 mM EDTA, followed by adjusting the membrane fraction by centrifugation to use the adjusted membrane fraction as an enzyme source.
To the reaction liquid having the following composition: 100 mM Tris pH 7.5, 100 mM MgCl2, 100 mM sucrose, 40 μM Dioelin, 15 μM [^14C]-oleoyl-CoA, 0.25 μg of test substance, DGAT1-expressed yeast membrane fraction, was added, and the mixture having a volume of 100 μl was incubated at room temperature for 30 minutes. To the reaction liquid, 100 μl of 2-propanol/heptan/H2O (80/20/2) was added, the mixture was stirred well, followed by adding 200 of heptane and further stirring the mixture. After centrifugation, the heptane layer was collected, ethanol/0.1N NaOH/H2O (50:5:45) was added, the mixture was thus stirred, followed by recentrifuging the mixture and collecting the heptane layer. After exsiccation of the resultant heptane layer, 100 μl of Microscint 0 (PerkinElmer) was added, and the radioactivity was measured with a liquid scintillation counter. The inhibitory activity was calculated from the following formula:
Inhibition rate=100−(radioactivity in case of addition of test compound−background)/(radioactivity in case of addition of no test compound−background)×100
wherein the background means the radioactivity in case of addition of no membrane fraction.

Compound	IC50
N-[2-({(3R)-5-[3,5-bis(trifluoromethyl)phenyl]-8-fluoro-1-methyl-2-oxo-2,3,4,5-tetrahydro-1H-1,5-benzodiazepin-3-yl}amino)-1,1-dimethyl-2-oxoethyl]-5-fluoropyridine-2-carboxyamide [Example 19]	24.1 nM
CN1C(=O)[C@H](NC(=O)C(C)(C)NC(=O)C2(C(F)(F)F)CC2)CN(c2cc(C(F)(F)F)cc(C(F)(F)F)c2)c2ccc(F)cc21 [Example 27, N-{(3R)-5-[3,5-bis(trifluoromethyl)phenyl]-8-fluoro-1-methyl-2-oxo-2,3,4,5-tetrahydro-1H-1,5-benzodiazepin-3-yl}-2-methyl-N^2-{[1-(trifluoromethyl)cyclopropyl]carbonyl}alaninamide]	16.3 nM
CN1C(=O)[C@H](NC(=O)C(C)(C)NC(=O)c2ccc(F)cc2)CN(c2ccc(OC(F)(F)F)cc2)c2ccc(F)cc21 [Example 1, 4-fluoro-N-[2-({(3R)-8-fluoro-1-methyl-2-oxo-5-[4-(trifluoromethoxy)phenyl]-2,3,4,5-tetrahydro-1H-1,5-benzodiazepin-3-yl}amino)-1,1-dimethyl-2-oxoethyl]benzamide]	166 nM
N-(2-{[(3R)-5-(3,5-dichlorophenyl)-8-fluoro-1-methyl-2-oxo-2,3,4,5-tetrahydro-1H-1,5-benzodiazepin-3-yl]amino}-1,1-dimethyl-2-oxoethyl)-1,3-thiazol-2-carboxyamide [Example 45]	29.2 nM
CN1C(=O)[C@H](NC(=O)C(C)(C)NC(=O)NC(C)(C)C)CN(c2cc(Cl)cc(Cl)c2)c2ccc(F)cc21 [Example 47, N^2-[(tert-butylamino)carbonyl]-N-[(3R)-5-(3,5-dichlorophenyl)-8-fluoro-1-methyl-2-oxo-2,3,4,5-tetrahydro-1H-1,5-benzodiazepin-3-yl]-2-methylalanineamide]	61.3 nM
CN1C(=O)[C@H](NC(=O)C2(NC(=O)c3ccccc3)CC2)CN(c2ccc(OC(F)(F)F)cc2)c2ccc(F)cc21 [Example 12, N-{1-[({(3R)-8-fluoro-1-methyl-2-oxo-5-[4-(trifluoromethoxy)phenyl]-2,3,4,5-tetrahydro-1H-1,5-benzodiazepin-3-yl}amino)carbonyl]cyclopropyl}benzamide]	192 nM

Other lines, results leading:

IC50	Compound
47.3 nM	CN1C(=O)[C@H](NC(=O)C2(NC(=O)c3ccccc3)CC2)CN(Cc2cc(C(F)(F)F)cc(C(F)(F)F)c2)c2ccccc21 [Example 64, N-{1-[({(3R)-5-[3,5-bis(trifluoromethyl)benzyl]-1-methyl-2-oxo-2,3,4,5-tetrahydro-1H-1,5-benzodiazepin-3-yl}amino)carbonyl]cyclopropyl}benzamide]
20.8 nM	CN1C(=O)[C@H](NC(=O)C2(NC(=O)OC(C)(C)C)CC2)CN(Cc2ccc(OC(F)(F)F)cc2)c2ccccc21 [Example 92, tert-butyl {1-[({(3R)-1-methyl-2-oxo-5-[4-(trifluoromethoxy)benzyl]-2,3,4,5-tetrahydro-1H-1,5-benzodiazepin-3-yl}amino)carbonyl]cyclopropyl}carbamate]
140 nM	CN1C(=O)[C@H](NC(=O)C(C)(C)NC(=O)c2ccc(F)cc2)CN(Cc2ccc(F)c(C(F)(F)F)c2)c2ccc(F)cc21 [Example 84, 4-fluoro-N-[2-({(3R)-8-fluoro-5-[4-fluoro-3-(trifluoromethyl)benzyl]-1-methyl-2-oxo-2,3,4,5-tetrahydro-1H-1,5-benzodiazepin-3-yl}amino)-1,1-dimethyl-2-oxoethyl]benzamide]
2230 nM	CN1C(=O)[C@H](NC(=O)C(C)(C)NC(=O)c2ncco2)CN(Cc2ccc(OC(F)(F)F)cc2)c2ccc(F)cc21 [Example 100, N-[2-({(3R)-8-fluoro-1-methyl-2-oxo-5-[4-(trifluoromethoxy)benzyl]-2,3,4,5-tetrahydro-1H-1,5-benzodiazepin-3-yl}amino)-1,1-dimethyl-2-oxoethyl]-1,3-oxazol-2-carboxyamide]
40.2 nM	CN1C(=O)[C@H](NC(=O)C(C)(C)NC(=O)c2ccc(F)cc2)CN(c2cc(Cl)cc(Cl)c2)c2cc(F)ccc21 [Example 59, N-(2-{[(3R)-5-(3,5-dichlorophenyl)-7-fluoro-1-methyl-2-oxo-2,3,4,5-tetrahydro-1H-1,5-benzodiazepin-3-yl]amino}-1,1-dimethyl-2-oxoethyl)-4-fluorobenzamide]
1340 nM	Cc1cnc(C(=O)NC(C)(C)C(=O)N[C@@H]2CN(Cc3ccc(OC(F)(F)F)cc3)c3ccc(F)cc3N(C)C2=O)cn1 [Example 98, N-[2-({(3R)-8-fluoro-1-methyl-2-oxo-5-[4-(trifluoromethoxy)benzyl]-2,3,4,5-tetrahydro-1H-1,5-benzodiazepin-3-yl}amino)-1,1-dimethyl-2-oxoethyl]-5-methylpyrazin-2-carboxyamide]
91.1 nM	CN1C(=O)[C@H](NC(=O)C(C)(C)NC(=O)N2CCCCC2)CN(c2ccc(OC(F)(F)F)cc2)c2ccc(F)cc21 [Example 52, N-[2-({(3R)-8-fluoro-1-methyl-2-oxo-5-[4-(trifluoromethoxy)phenyl]-2,3,4,5-tetrahydro-1H-1,5-benzodiazepin-3-yl}amino)-1,1-dimethyl-2-oxoethyl]piperidin-1-carboxyamide]

— patent US20110319396A1, “BENZODIAZEPIN-2-ON DERIVATIVES” (MSD K.K., priority 2009, published 2011)
